Assay [1] deals with K562. Kind of assay: Antiproliferative activity against imatinib treated human K562 cells assessed as cell growth inhibition measured after 72 hrs by MTT assay. It is filed as functional, cell-based. To be noted: K562, 72 h.
Assay [2] concerns OCI-AML2. In words: Antiproliferative activity against imatinib and Ara-C resistant human OCI-AML2 cells assessed as cell growth inhibition measured after 72 hrs by MTT assay. It is filed as functional, cell-based. To be noted: OCI-AML2, 72 h.
Assay [3] relates to OCI-AML2. In words: Antiproliferative activity against human OCI-AML2 cells assessed as cell growth inhibition measured after 72 hrs by MTT assay. To be noted: OCI-AML2, 72 h. The format is functional, cell-based.
In assay [4] the test system is K562. Kind of assay: Antiproliferative activity against human K562 cells assessed as cell growth inhibition measured after 72 hrs by MTT assay. The format is functional, cell-based. As to conditions: K562, 72 h.
The target in assay [5] is T1, Cyclin-dependent kinase 5/CDK5 activator 1 (Homo sapiens, UniProt Q00535). In words: Inhibition of GST-fused CDK5/p25 (unknown origin). The format is protein-complex assay.
T1 sequence (Q00535 whole entry, the tested form may be a part): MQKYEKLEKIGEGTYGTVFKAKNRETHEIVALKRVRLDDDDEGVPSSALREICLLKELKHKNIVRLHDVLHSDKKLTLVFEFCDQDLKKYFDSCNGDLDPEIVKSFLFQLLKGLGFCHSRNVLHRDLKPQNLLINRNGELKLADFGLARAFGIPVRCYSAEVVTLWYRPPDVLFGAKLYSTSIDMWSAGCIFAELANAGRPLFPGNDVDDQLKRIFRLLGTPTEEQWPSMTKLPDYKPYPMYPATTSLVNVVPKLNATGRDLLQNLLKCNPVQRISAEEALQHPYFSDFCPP
T1 sequence (Q15078 whole entry, further chain, the tested form may be a part): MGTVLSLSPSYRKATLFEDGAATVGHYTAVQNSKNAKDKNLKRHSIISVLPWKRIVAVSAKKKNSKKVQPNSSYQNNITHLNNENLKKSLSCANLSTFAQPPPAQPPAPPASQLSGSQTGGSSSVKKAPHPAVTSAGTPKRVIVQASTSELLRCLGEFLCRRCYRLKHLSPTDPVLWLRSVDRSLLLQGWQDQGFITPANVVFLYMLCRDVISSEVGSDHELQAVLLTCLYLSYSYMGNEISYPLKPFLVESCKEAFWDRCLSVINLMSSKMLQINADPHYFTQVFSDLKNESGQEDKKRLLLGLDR
Assay [6] addresses Glycogen synthase kinase-3 (Sus scrofa, UniProt B2LUN4+I6LNT8). In words: Inhibition of porcine brain GSK-3alpha/beta incubated for 30 mins in presence of [33p]-gamma ATP by scintillation counter analysis.
In assay [7] the test system is MCF7. Kind of assay: Cytotoxicity against human MCF7 cells assessed as cell growth inhibition by MTT assay. The format is functional, cell-based.
A short description of assay [8]: Inhibition of starfish oocyte CDK1/Cyclin B using histone H1 as substrate incubated for 10 mins in presence of [gamma-32P]ATP by scintillation counter analysis. On the set-up: species or system Marthasterias glacialis.
Assay [9] relates to LoVo. In words: Cytotoxicity against human LoVo cells assessed as cell growth inhibition by MTT assay. It is filed as functional, cell-based.
The subject of assay [10] is LNCaP. Kind of assay: Cytotoxicity against human LNCaP cells assessed as cell growth inhibition by MTT assay. It is filed as functional, cell-based.
Assay [11] has as its target Tyrosine-protein kinase HCK (Homo sapiens, UniProt P08631). Kind of assay: Inhibition of recombinant Hck (unknown origin).
In assay [12] the target is Tyrosine-protein kinase Lyn (Homo sapiens, UniProt P07948). In words: Inhibition of recombinant Lyn (unknown origin).
Tyrosine-protein kinase Lyn, sequence (P07948 whole entry): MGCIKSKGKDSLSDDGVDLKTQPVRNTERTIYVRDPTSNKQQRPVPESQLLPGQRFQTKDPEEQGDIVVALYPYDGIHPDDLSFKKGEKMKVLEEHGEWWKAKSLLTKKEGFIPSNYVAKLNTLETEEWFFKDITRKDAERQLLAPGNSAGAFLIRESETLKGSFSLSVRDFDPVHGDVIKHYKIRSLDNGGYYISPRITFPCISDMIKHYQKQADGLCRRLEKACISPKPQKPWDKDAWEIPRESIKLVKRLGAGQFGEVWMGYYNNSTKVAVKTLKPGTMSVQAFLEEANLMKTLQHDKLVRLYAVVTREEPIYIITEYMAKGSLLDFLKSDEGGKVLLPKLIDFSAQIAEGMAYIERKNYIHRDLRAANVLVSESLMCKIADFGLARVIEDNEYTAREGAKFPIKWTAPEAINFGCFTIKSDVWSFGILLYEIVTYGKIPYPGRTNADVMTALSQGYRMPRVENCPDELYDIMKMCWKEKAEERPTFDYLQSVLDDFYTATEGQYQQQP
Assay [13] has as its target Non-receptor tyrosine-protein kinase TYK2 (Homo sapiens, UniProt P29597). In words: Inhibition of recombinant Tyk2 (unknown origin).
Assay [14] addresses Tyrosine-protein kinase JAK2 (Homo sapiens, UniProt O60674). In words: Inhibition of recombinant JAK2 (unknown origin).
Assay [15] relates to PANC-1. Kind of assay: Antiproliferative activity against human PANC-1 cells assessed as cell growth inhibition measured after 42 hrs by MTS assay. The format is functional, cell-based. To be noted: PANC-1, 42 h.
The target of assay [16] is Proto-oncogene tyrosine-protein kinase Src (Homo sapiens, UniProt P12931). Kind of assay: Inhibition of recombinant c-Src (unknown origin).
Proto-oncogene tyrosine-protein kinase Src, sequence (P12931 2-536 limits assumed): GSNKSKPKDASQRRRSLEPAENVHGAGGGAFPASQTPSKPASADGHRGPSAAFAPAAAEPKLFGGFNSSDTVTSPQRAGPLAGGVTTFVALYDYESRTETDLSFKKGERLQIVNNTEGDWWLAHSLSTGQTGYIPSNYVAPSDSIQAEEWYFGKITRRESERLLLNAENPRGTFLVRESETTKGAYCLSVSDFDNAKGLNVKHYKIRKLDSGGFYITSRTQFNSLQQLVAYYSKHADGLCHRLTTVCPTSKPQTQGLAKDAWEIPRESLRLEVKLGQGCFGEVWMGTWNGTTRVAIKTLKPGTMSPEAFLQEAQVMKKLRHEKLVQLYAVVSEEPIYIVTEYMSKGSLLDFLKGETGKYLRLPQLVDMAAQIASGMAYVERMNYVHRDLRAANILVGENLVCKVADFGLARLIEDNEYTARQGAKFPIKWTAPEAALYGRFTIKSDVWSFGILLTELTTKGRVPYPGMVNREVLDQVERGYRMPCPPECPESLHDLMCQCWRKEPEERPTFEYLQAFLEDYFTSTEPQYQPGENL
Assay [17] deals with Tyrosine-protein kinase JAK1 (Homo sapiens, UniProt P23458). In words: Inhibition of recombinant JAK1 (unknown origin).
Tyrosine-protein kinase JAK1, sequence (P23458 whole entry): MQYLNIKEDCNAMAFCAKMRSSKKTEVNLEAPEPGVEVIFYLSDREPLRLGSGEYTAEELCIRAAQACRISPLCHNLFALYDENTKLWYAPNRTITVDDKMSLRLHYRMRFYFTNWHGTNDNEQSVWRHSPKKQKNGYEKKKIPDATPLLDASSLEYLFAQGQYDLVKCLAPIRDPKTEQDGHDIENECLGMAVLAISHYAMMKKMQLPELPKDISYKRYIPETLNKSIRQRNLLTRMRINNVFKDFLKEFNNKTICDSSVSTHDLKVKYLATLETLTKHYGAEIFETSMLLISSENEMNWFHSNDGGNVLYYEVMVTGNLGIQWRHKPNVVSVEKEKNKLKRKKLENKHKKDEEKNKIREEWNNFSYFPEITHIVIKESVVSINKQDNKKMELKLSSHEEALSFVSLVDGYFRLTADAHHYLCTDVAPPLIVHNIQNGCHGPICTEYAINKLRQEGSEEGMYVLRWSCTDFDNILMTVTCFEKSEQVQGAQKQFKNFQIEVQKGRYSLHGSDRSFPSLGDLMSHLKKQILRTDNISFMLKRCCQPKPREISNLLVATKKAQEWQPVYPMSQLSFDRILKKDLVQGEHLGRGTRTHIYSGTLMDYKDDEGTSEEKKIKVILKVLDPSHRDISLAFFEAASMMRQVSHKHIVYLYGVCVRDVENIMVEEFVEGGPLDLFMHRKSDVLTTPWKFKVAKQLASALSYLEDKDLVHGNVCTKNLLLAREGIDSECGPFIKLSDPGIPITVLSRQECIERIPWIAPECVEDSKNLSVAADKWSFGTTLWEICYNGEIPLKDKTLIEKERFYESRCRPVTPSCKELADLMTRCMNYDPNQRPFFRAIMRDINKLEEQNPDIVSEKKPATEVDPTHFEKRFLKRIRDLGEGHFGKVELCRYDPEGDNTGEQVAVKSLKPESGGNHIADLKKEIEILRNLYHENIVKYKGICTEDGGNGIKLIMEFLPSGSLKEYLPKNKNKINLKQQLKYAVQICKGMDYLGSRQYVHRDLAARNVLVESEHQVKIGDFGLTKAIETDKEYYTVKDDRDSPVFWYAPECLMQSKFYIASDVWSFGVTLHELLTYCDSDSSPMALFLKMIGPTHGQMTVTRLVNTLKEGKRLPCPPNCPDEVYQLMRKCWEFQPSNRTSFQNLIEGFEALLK
For assay [18], the system named is MIA PaCa-2. Kind of assay: Antiproliferative activity against human MIA PaCa-2 cells assessed as cell growth inhibition measured after 42 hrs by MTS assay. The format is functional, cell-based. To be noted: MIA PaCa-2, 42 h.
The test system of assay [19] is BXPC-3. In words: Antiproliferative activity against human BXPC-3 cells assessed as cell growth inhibition measured after 42 hrs by MTS assay. As to conditions: BXPC-3, 42 h. It is filed as functional, cell-based.
Assay [20] relates to SK-N-SH. In words: Antiproliferative activity against human SK-N-SH cells assessed as cell growth inhibition. It is filed as functional, cell-based.
Assay [21] deals with IMR-32. In words: Antiproliferative activity against human IMR-32 cells assessed as cell growth inhibition. It is filed as functional, cell-based.
Assay [22] concerns the target T2, CDK2/Cyclin A2 (Homo sapiens, UniProt P24941). In words: Inhibition of GST-fused human CDK2/cyclin A expressed in Escherichia coli using histone H1 as substrate in presence of [33p]-gamma ATP and MgATP.
The test system of assay [23] is MCF7. Kind of assay: Cytotoxicity against human MCF7 cells assessed as cell growth inhibition measured after 3 days by SRB assay. To be noted: MCF7, 72 h. It is filed as functional, cell-based.
Assay [24] deals with T3, Receptor-type tyrosine-protein kinase FLT3 (Homo sapiens, UniProt P36888).
T3 sequence (P36888 whole entry): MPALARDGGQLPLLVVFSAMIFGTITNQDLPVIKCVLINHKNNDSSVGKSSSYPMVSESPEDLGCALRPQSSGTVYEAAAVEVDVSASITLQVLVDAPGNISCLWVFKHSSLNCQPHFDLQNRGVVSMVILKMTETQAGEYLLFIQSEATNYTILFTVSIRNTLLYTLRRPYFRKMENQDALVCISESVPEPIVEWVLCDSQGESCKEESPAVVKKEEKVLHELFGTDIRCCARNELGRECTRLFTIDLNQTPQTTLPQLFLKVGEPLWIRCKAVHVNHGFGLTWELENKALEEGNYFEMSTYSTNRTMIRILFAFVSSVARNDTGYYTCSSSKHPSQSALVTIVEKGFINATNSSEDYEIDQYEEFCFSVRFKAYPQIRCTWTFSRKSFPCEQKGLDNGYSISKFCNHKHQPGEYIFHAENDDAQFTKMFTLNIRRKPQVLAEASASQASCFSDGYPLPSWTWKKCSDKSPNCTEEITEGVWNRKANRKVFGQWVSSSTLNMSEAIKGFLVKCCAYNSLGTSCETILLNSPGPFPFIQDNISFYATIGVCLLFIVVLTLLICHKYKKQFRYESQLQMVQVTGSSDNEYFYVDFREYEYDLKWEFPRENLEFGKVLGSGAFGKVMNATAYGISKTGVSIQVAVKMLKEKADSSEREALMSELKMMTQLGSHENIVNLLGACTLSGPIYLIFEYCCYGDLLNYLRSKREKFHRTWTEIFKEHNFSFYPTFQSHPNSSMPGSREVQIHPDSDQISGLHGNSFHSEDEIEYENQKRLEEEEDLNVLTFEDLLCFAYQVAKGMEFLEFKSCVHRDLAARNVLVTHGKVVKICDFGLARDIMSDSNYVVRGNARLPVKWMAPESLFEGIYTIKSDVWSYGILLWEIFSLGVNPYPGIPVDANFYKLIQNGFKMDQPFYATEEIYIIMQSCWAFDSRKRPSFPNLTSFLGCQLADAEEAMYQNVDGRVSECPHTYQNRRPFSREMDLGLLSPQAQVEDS
Kind of assay: Inhibition of FLT3 (unknown origin).

The target of assay [25] is T2, CDK2/Cyclin A2. Kind of assay: Inhibition of CDK2/cyclin A (unknown origin). It is filed as protein-complex assay.
Assay [26] concerns the target T3, Receptor-type tyrosine-protein kinase FLT3. Kind of assay: Inhibition of recombinant FLT3 (unknown origin) in presence of ATP by HTRF assay.
Assay [27] has as its system HL-60. Kind of assay: Antiproliferative activity against human HL-60 cells assessed as cell growth inhibition measured after 3 days by trypan blue staining based inverted microscope method. It is filed as functional. As to conditions: HL-60, 72 h, time 3 day.
In assay [28] the target is Fibroblast growth factor receptor 1 (Homo sapiens, UniProt P11362). In words: Inhibition of FGFR1 (unknown origin).
Fibroblast growth factor receptor 1, sequence (P11362 whole entry): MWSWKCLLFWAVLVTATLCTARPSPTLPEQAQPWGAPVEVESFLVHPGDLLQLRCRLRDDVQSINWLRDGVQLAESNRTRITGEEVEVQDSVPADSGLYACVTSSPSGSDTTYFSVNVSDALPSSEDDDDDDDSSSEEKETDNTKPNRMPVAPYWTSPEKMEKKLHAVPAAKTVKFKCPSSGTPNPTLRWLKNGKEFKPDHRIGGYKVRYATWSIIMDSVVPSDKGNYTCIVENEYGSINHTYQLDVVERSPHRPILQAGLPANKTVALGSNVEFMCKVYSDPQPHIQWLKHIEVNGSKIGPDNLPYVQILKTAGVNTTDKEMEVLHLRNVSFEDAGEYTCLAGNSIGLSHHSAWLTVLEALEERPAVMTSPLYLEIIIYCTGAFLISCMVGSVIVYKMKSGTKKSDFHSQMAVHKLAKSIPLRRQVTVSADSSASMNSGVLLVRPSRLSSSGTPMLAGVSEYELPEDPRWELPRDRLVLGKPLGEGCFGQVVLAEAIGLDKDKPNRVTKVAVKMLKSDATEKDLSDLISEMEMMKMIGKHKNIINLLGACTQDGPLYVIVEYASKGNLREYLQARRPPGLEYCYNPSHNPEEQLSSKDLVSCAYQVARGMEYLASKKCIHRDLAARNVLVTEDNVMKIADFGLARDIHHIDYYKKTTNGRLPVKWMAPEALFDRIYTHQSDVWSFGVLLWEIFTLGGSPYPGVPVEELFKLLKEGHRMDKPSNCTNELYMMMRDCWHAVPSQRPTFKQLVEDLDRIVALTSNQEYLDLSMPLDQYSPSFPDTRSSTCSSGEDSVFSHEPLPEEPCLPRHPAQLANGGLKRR
In assay [29] the target is Tyrosine-protein kinase Lck (Homo sapiens, UniProt P06239). Kind of assay: Inhibition of LCK (unknown origin) in presence of ATP.
Tyrosine-protein kinase Lck, sequence (P06239 whole entry): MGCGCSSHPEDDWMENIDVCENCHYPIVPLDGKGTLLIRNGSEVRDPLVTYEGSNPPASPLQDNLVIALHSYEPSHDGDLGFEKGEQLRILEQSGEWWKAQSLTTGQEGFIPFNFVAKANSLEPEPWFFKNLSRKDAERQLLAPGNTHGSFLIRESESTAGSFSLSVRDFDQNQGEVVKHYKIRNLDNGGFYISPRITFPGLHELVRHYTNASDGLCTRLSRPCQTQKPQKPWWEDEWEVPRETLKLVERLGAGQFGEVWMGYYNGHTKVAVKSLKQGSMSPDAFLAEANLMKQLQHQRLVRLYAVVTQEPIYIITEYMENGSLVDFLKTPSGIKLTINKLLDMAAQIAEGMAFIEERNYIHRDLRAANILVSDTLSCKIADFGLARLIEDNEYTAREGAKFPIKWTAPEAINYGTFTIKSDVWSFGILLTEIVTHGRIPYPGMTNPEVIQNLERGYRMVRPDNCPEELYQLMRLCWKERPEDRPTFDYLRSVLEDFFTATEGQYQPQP
Assay [30] concerns HuCCT-1. Kind of assay: Antiproliferative activity against human HuCCT-1 cells assessed as cell growth inhibition measured upto 72 hrs by CCK-8 assay. It is filed as functional, cell-based. As to conditions: HuCCT-1, 72 h.
In assay [31] the target is Serine/threonine-protein kinase Sgk1 (Homo sapiens, UniProt O00141). Kind of assay: Inhibition of SGK (unknown origin) in presence of ATP.
Assay [32] can be described thus: Inhibition of CDK2/cyclin E (unknown origin). On the set-up: species or system Homo sapiens.
The subject of assay [33] is A549. Kind of assay: Antitumor activity against human A549 cells xenografted in CD1 mouse assessed as reduction in tumour volume at 6 mg/kg, sc treated 3 times a week for 25 days in presence of thymoquinone relative to control. The format is functional. On the set-up: scale not given: the % may be the effect or the level left. To be noted: time 25 day.
The target in assay [34] is Receptor-type tyrosine-protein kinase FLT3 (Homo sapiens, UniProt P36888, D835Y). In words: Inhibition of recombinant FLT3 D835Y mutant (unknown origin) in presence of ATP by HTRF assay.
Assay [35] is described as follows: Inhibition of VEGFR (unknown origin). On the set-up: species or system Homo sapiens.
The subject of assay [36] is A549. In words: Antitumor activity against human A549 cells xenografted in CD1 mouse assessed as reduction in tumour weight at 6 mg/kg, sc treated 3 times a week for 25 days in presence of thymoquinone relative to control. It is filed as functional. On the set-up: scale not given: the % may be the effect or the level left. To be noted: time 25 day.
Assay [37] relates to LXFL 529. In words: Cytotoxicity against human LXFL 529 cells assessed as cell growth inhibition measured after 3 days by SRB assay. The format is functional, cell-based. To be noted: LXFL 529, 72 h.
The test system of assay [38] is HUVEC. In words: Antiproliferative activity against HUVEC cells assessed as cell growth inhibition measured after 3 days by [3H]-thymidine incorporation assay. The format is functional, cell-based. As to conditions: Homo sapiens.
Assay [39] is described as follows: Antiproliferative activity against human NOZ cells assessed as cell growth inhibition measured upto 72 hrs by CCK-8 assay. The format is functional, cell-based.
For assay [40], the system named is MV4-11. In words: Antiproliferative activity against human MV4-11 cells assessed as cell growth inhibition measured after 72 hrs by tetrazolium staining based WST-8 assay. It is filed as functional. To be noted: MV4-11, 72 h.
Assay [41] in a line: Antiproliferative activity against human OZ [Human cholangiocarcinoma] cells assessed as cell growth inhibition measured upto 72 hrs by CCK-8 assay. The format is functional, cell-based.
The species entered for assay [42] is Danio rerio. Kind of assay: Antiangiogenic activity in transgenic zebrafish embryo assessed as inhibition of angiogenic vessel growth incubated for 24 hrs by FITC staining based analysis. It is filed as functional, organism-based.
The target of assay [43] is Cyclin-dependent kinase 4/cyclin D1 (Homo sapiens, UniProt P11802). In words: Inhibition of CDK4/cyclin D1 (unknown origin). The format is protein-complex assay.
Assay [44] concerns the target T1, Cyclin-dependent kinase 5/CDK5 activator 1. Kind of assay: Inhibition of CDK5/p35 (unknown origin). The format is protein-complex assay.
Assay [45] deals with Glycogen synthase kinase-3 (Homo sapiens, UniProt P49840+P49841). In words: Inhibition of GSK3 (unknown origin). It is filed as protein assay.

Some results are limits rather than exact numbers.

Tyrosine-protein kinase HCK, sequence (P08631 whole entry): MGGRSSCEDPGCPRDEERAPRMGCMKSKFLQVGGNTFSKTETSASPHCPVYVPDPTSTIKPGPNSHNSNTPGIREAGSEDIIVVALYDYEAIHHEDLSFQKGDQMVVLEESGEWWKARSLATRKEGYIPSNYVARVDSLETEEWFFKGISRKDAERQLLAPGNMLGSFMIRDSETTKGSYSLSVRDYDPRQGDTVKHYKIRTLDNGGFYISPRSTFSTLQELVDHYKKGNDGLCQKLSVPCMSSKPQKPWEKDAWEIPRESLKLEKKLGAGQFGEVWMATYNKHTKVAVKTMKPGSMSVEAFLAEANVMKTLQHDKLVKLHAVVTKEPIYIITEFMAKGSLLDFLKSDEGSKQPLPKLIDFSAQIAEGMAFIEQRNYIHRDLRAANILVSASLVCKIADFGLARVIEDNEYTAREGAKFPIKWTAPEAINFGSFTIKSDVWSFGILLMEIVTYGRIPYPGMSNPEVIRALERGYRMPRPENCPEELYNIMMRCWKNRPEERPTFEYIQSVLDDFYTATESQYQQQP

Consider `O=C1Nc2ccc(NC(=O)C(c3ccccc3)c3ccccc3)cc2/C1=C1/Nc2ccccc2/C1=N\O`, for which the half-maximal inhibitory concentration (IC50) in [1] turned out to be 3650 nM; in assay [2], 2360 nM; in assay [3], 2420 nM; in [4], 2910 nM.
For the compound `CN1C(=O)/C(=C2\Nc3ccccc3\C2=N/O)c2ccccc21`, the IC50 is greater than 100000 nM in assay [5]; greater than 100000 nM in assay [6]; 58600 nM in [7]; 73000 nM in assay [8]; greater than 100000 nM in assay [9]; 68900 nM in assay [10].
Consider `COc1ccc2c(c1)/C(=C1/Nc3ccccc3/C1=N\OCC(O)CO)C(=O)N2` (stereo unspecified), for which the IC50 in assay [11] came out at 10.7 nM; in assay [12] it was 10.7 nM; in [13], 10.7 nM; in [14] it was 10.7 nM; in [15] it was 760 nM; in assay [16], 10.7 nM. In addition, the IC50 in [17] was determined as 10.7 nM; in [18] it was 760 nM; in assay [19], 760 nM.
For the compound `O=C1Nc2ccccc2/C1=C1/Nc2ccccc2/C1=N\OCC1CO1` (stereo unspecified), the IC50 came to 70 nM in [20] and 160 nM in assay [21].
In the case of `O=C1Nc2ccccc2/C1=C1/Nc2ccccc2/C1=N\O`, the IC50 in [22] was 590 nM; in [23], 3300 nM; in assay [24], 101 nM; in [25], 440 nM; in assay [26], 79 nM; in [28], 2500 nM. In addition, the IC50 worked out at 300 nM in [29]; 5000 nM in [30]; 380 nM in assay [31]; 250 nM in assay [32]; 101 nM in assay [34]; 1480 nM in assay [35]. Besides, the IC50 in assay [37] amounted to 3000 nM; in [38], 360 nM; in [39], 4400 nM; in assay [40], 30 nM; in [41], 4700 nM; in [42], 310 nM. The IC50 in [43] worked out at 3330 nM. In addition, the GI50 in assay [27] is 36600 nM. Further, the Activity is given as 83.5% in assay [33] and 66.7% in [36].
As to `O=C1Nc2ccc(S(=O)(=O)O)cc2/C1=C1/Nc2ccccc2C1=O`, the IC50 in [44] was found to be 65 nM; in [8], 55 nM.
Turning to `Cl.Cl.O=C1Nc2cc(Br)ccc2/C1=C1/Nc2ccccc2/C1=N\OCCN1CCNCC1`, the IC50 in assay [45] came out at 1.3 nM.
